Measured values taken from article PMC12004264 (2025).

Assays:
[1] = test system: G4 Tel (DNA, G4) AGGGTTAGGGTTAGGGTTAGGG; test: CD melting; conditions: K+ (concentration not restated for melting); 8 equiv. ligand; 16 μM
[2] = test system: MYC (DNA, G4) TGAGGGTGGGTAGGGTGGGTAA; test: CD melting; conditions: K+ (concentration not restated for melting); 8 equiv. ligand; 16 μM
[3] = test system: MYC (DNA, G4) TGAGGGTGGGTAGGGTGGGTAA; test: Hoechst 33258 fluorescent displacement; conditions: Hoechst 33258 displaced, quenching nearly 35%; tracking lost at higher ligand
[4] = test system: G4 Tel (DNA, G4) AGGGTTAGGGTTAGGGTTAGGG; test: fluorescence titration, ligand emission, Hill fit; conditions: apparent, ligand 10 μM
[5] = test system: MYC (DNA, G4) TGAGGGTGGGTAGGGTGGGTAA; test: fluorescence titration, ligand emission, Hill fit; conditions: K+ 100 mM, apparent, PBS 20 mM phosphate, pH 6.8, room temperature, ligand 10 μM
[6] = test system: KRAS (DNA, G4) AGGGCGGTGTGGGAAGAGGGAAGAGGGGGAGG; test: fluorescence titration, ligand emission, Hill fit; conditions: K+ 100 mM, apparent, PBS 20 mM phosphate, pH 6.8, room temperature, ligand 10 μM
[7] = test system: ds26 (DNA, duplex) CAATCGGATCGAATTCGATCCGATTG; test: fluorescence titration, ligand emission, Hill fit; conditions: K+ 100 mM, apparent, PBS 20 mM phosphate, pH 6.8, room temperature, ligand 10 μM

| ΔTm [1] [°C] | ΔTm [2] [°C] | binding [3] | KD ([4]; K+ 100 mM, PBS 20 mM phosphate, pH 6.8, room temperature, Hill n 0.98) [µM] | KD ([4]; Na+ (Tris-NaCl), Tris-NaCl buffer, room temperature, Hill n 0.80, buffer alone quenches 31%) [µM] | KD ([5]; Hill n 1.33) [µM] | KD ([6]; Hill n 0.97) [µM] | KD ([7]; Hill n 0.98) [µM] | KD ([4]; K+ 100 mM, PBS 20 mM phosphate, pH 6.8, room temperature, Hill n 7.83) [µM] | KD ([4]; Na+ (Tris-NaCl), Tris-NaCl buffer, room temperature, Hill n 4.66, buffer alone quenches 44%) [µM] | KD ([5]; Hill n 4.68) [µM] | KD ([6]; Hill n 8.07) [µM] | KD ([7]; Hill n 15.27) [µM] | SMILES |
| --- | --- | --- | --- | --- | --- | --- | --- | --- | --- | --- | --- | --- | --- |
| 0.9 | 10.7 | yes | 3.30 ± 0.11 | 2.08 ± 0.07 | 1.86 ± 0.04 | 9.62 ± 0.70 | 14.95 ± 1.00 |  |  |  |  |  | COc1ccc(-c2cc3c(cc2-c2cc[n+](C)cc2)c(=O)c2ccccc2n3C)cc1 |
| 1.7 | 6.2 |  |  |  |  |  |  | 2.58 ± 0.03 | 3.45 ± 0.05 | 10.85 ± 0.30 | 5.51 ± 0.079 | 3.73 ± 0.02 | COc1ccc(-c2cc3c(cc2-c2ccncc2)c(=O)c2ccccc2n3C)cc1 |
